Measured values: patent publication US20180193336A1, “SPRAY DRY FORMULATIONS” (Pulmokine, Inc., priority 2013, published 2018)
Values after ≈ are worked out from the molar mass of the structure shown. Where two headings read alike, the source gives them in different places. Each block holds one molecule with its values, some of them ahead of it.

Legend:
[1] = tested on: PDGFAA stimulated phosphorylation of ERK1 and ERK2; assay: PDGFAA stimulated phosphorylation of ERK1 and ERK2 in human fetal lung fibroblasts; format: cell-based; details: 1 uM; PDGFAA 10 ng/ml
Description: (§1) Data shown are mean±SEM. […] PK10453=structure 2; PK10571=structure 2a. Platelet derived growth factor receptor alpha=PDGFR-alpha=PDGFR-α=PDGF receptor alpha=PDGF alpha receptor. Platelet derived growth factor receptor beta=PDGFR-beta=PDGFRβ=PDGF receptor beta=PDGF beta receptor.

rat MCT+PN model [2] = assay: Telemetry of pulmonary artery pressure in rat MCT+PN model; format: in vivo; details: rat MCT+PN
Procedure: Pneumonectomy and implantation of a TRM53P telemetry monitor in the pulmonary artery (Telemetry Research, New Zealand and ADInstruments, Colorado) was carried out in rats. Two weeks after MCT, PK10453 (Structure 2) was administered three times daily for 1 week. […] The two groups underwent 4 min exposures of either the vehicle control or PK10453 (Structure 2). Sampling of PA pressure was performed 5 min before each morning dose in ambulatory animals in room air (estimated atmospheric pressure 716 mm Hg based on elevation of animal facility). […] Telemetry data was obtained for 10 min daily before each morning dose for this protocol.

[3] = Solubility experiments in ethanol/water
Description: To maximize the amount of hydrophobic shell former (Leucine) on the surface, a higher ratio is desired.

[4] = typically; cited from earlier work
[5] = tested on: PDGFBB stimulated AKT phosphorylation; assay: In cell Western, PDGFBB stimulated AKT phosphorylation in human fetal lung fibroblasts; format: cell-based; details: for IC50 for inhibiting PDGFBB stimulated AKT phosphorylation relative to imatinib: fetal human lung fibroblasts, FIG. 18
Procedure: HLFs were maintained in subculture at no more than 6 passages in DMEM with 5% FBS and 4 mM Glutamax at 37° C., 5% CO2. HLFs were plated and grown to 70-80% confluence in 96 well plates then serum-starved for 48 hours. […] Antibodies were detected using IRDye 680LT goat anti-mouse IgG and IRDye 800 W goat α-rabbit IgG conjugated antibodies. After washing, the signal was quantified using an Odyssey Infrared Imaging System (LI-COR). Phosphoprotein signal (800 nm) was normalized to total protein signal (700 nm) acquired from each well and experimental duplicates on same plate were averaged and reported.

PDGFRbeta = PDGFRbeta (Homo sapiens, UniProt P09619); details: FIG. 25
Procedure: A Z-lyte kinase assay was performed to determine the inhibition of PDGFRalpha and PDGFRbeta mediated phosphorylation by PK10453 (Structure 2). Ten point titration curves were modeled to calculate the IC50 (Invitrogen Select Screen®).

rat MCT+PN model [6] = assay: Inhaled PK10571 dry powder in rat MCT+PN model, PA telemetry; format: in vivo
Description: We performed a pre-clinical efficacy study of inhaled PK10571 in the rat MCT+PN model. We used the MCT+PN model, because in this model, neointimal pulmonary arteriole proliferative lesions occur in a manner similar to what is observed in the human disease. In this experiment, drug treatment was started later than in prior studies of PK10453.
In prior studies, PK10453 was started 2 weeks after MCT injection (3 weeks after pneumonectomy). In the PK10571 SDD study, treatment was started 3 weeks after MCT injection (4 weeks after pneumonectomy). It should be noted that pneumonectomized rats given MCT develop severe PAH starting two weeks after the MCT injection. (In MCT only rats, it takes longer for PAH to develop (i.e., 3 weeks)). […] A. PK10453 study time drug treatment started (See Pulm Circ 2014 8(1):82-102). B. PK10571 SDD study time treatment started in MCT+PN model. C. Start time typical for MCT only model. Data acquired via telemetry monitoring of PA pressures in ambulatory rats. (Note: Day 11 in MCT+PN model data not shown).
PK10571 dry powder with leucine and trehalose excipient was administered by nose only inhalation 30 minutes (on average) twice a day to the rats, via a Vilnius Dry Powder Generator connected to a CH Technologies Exposure tower. Estimated average API dose deposited in lung 0.25 mg/kg (calculated from measurement of aerosol concentration and minute ventilation of pneumonectomized rat) with estimated human dose equivalent (HED) 0.04 mg/kg. […] The mode of death of these animals has not been fully characterized but may be related to RV failure. We have noted that although pulmonary pressures rise gradually and progressively over a period of two weeks after MCT injection, in the third week, animals may enter a “crisis” phase and die suddenly. […] This finding confirms the disease modifying potential of PK10571. One animal in the drug treatment group was euthanized for weight loss on day 5 as per our preset criteria.

[7] = tested on: rat monocrotaline pneumonectomy model; details: inhaled twice daily for ten days
[8] = tested on: phosphorylated PDGF receptor beta (Y751, Y1021); assay: Western blot of phosphorylated PDGF receptor beta in adult human lung fibroblasts; details: HLFa; 0.01-10 uM, 30 min pre-treatment; 10 ng/mL PDGF BB 7.5 minutes
Procedure: FIG. 40 PANEL A illustrates pPDGFrBeta (Y751), Beta-Actin, Stripped and reprobed with Total PDGFrBeta, note that 25 ug/lane was loaded, with a 1:500 dilution of pPDGFrBeta(Y751) antibody during incubation.
FIG. 40 PANEL B illustrates pPDGFrBeta (Y1021), Beta-Actin, Stripped and reprobed with Total PDGFrBeta, note that 25 ug/lane was loaded, with a 1:500 dilution of pPDGFrBeta(Y1021) antibody during incubation.

[9] = tested on: PDGFBB stimulated phosphorylation of ERK1 and ERK2; assay: PDGFBB stimulated phosphorylation of ERK1 and ERK2 in human fetal lung fibroblasts; format: cell-based
Description: as §1

[10] = tested on: SU5416/hypoxia/normoxia model of PAH; assay: PK10571 in SU5416/hypoxia/normoxia model of PAH; format: in vivo, rat
Procedure: The SU5416/hypoxia/normoxia model of PAH is well described in the field, is considered to accurately reflect the human disease of PAH and to predict drug response in humans^25. Study animals were administered SU5416 20 mg/kg SQ and placed in a COY Hypoxia chamber at FiO2=10%. Animals studied after 1 week hypoxia; 2 weeks hypoxia/12 days normoxia; 3 weeks hypoxia/12 days normoxia; and 3 weeks hypoxia/5 weeks normoxia. End of study procedures included acquisition of right ventricular pressure volume loops with a Scisense Admittance system. The RV PV loops were acquired on ventilated open chest animals with isoflurane anesthesia and 100% F1O2. In addition a subset of animals had implantation of DSI PAC40 telemetry catheters in the PA. In this subset, PA pressures were monitored continuously in ambulatory animals, and analysis of PA pressures before and after dosing was performed for 7 days of dosing.
PK10571/trehalose/leucine dry powder or Vehicle was administered twice a day via the CH Technologies Exposure System, in the SUGEN5416/2 week hypoxia/normoxia 2 week subgroups.
In the SU5416 model we also examined microfil radiopaque casts of the pulmonary arterial circulation with microCT and 3D reconstruction. The casts were made after flushing the pulmonary circulation of the rats with heparinized saline followed by sodium nitroprusside to maximally vasodilate the pulmonary arterial vessels. Microfil was then injected with a syringe pump at 0.2 ml/min until the proximal PA was engorged and a lattice of microfil was visible in the peripheral lung. The chest was filled with ice saline until the microfil was cured. […] Vehicle treated animal on left. PK10571 treated animal on right. Resolution: 20 microns.

[11] = dry powder with leucine and trehalose, inhaled twice a day, within treatment group

PDGFRbeta, sequence (P09619 600-962 limits assumed): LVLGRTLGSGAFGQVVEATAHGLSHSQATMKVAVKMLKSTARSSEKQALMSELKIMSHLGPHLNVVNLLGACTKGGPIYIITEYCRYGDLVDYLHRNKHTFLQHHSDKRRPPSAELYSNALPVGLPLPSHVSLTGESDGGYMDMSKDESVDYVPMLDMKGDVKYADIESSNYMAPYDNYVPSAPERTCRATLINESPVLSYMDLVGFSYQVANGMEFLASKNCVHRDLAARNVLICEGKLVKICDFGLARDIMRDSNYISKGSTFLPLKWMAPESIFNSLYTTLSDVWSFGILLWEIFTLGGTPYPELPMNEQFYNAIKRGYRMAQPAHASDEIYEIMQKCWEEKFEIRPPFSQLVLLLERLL

Compound: Cc1ccc(NC(=O)c2ccc(CN3CCN(C)CC3)cc2)cc1Nc1nccc(-c2cccnc2)n1 [Imatinib, reference compound]
- decrease of PDGF AA stimulated ppERK1 and ppERK2 formation [1]: equally effective
- efficacy by inhalation in the MCT+PN model (rat MCT+PN model [2]): not effective

- concentration obtained with a 2:1 EtOH:H2O mixture [3]: up to 13 mg/ml
- concentration at which precipitated, 1:1 v:v EtOH:H2O solution ([3]; room temperature): 5000 to 10000 µg/mL
Compound: CC(C)C[C@H](N)C(=O)O [L-Leucine]
- solubility in EtOH [4]: insoluble
- solubility in water [4]: 25 to 30 mg/mL

Compound: COc1cc(-c2cncc(N[C@@H](C)c3cccc(NC(=O)c4cnc(C#N)nc4)c3)n2)ccc1O [PK10467]
- IC50 for inhibiting PDGFBB stimulated AKT phosphorylation relative to imatinib [5]: lower IC50 concentration compared to imatinib

Compound: C=CS(=O)(=O)NCc1ccc(C(=O)Nc2cccc([C@H](C)Nc3cncc(-c4ccc(O)c(OC)c4)n3)c2)cc1 [PK10468]
- IC50 for inhibiting PDGFBB stimulated AKT phosphorylation relative to imatinib [5]: lower IC50 concentration compared to imatinib

Compound: COc1cc(-c2cncc(N[C@@H](C)c3cccc(NC(=O)c4cncc(C)c4)c3)n2)ccc1C [PK10569]
- IC50 for inhibiting PDGFBB stimulated AKT phosphorylation relative to imatinib [5]: lower IC50 concentration compared to imatinib

Compound: COc1ccc(-c2cncc(N[C@@H](C)c3cccc(NC(=O)c4cncc(C)c4)c3)n2)cc1OC [PK10571]
- decrease of PDGF AA stimulated ppERK1 and ppERK2 formation [1]: equally effective
- potency against PDGFR beta kinase domain relative to imatinib (PDGFRbeta): more potent than imatinib
- effect on pulmonary artery pressures (rat MCT+PN model [6]; dry powder containing leucine and trehalose): effective in lowering pulmonary artery pressures
- reduction of PA pressure, day 8 compared to day 1 (rat MCT+PN model [6]; [11]): 22%
- reduction of PA pressure, day 8 vs. day 3 (rat MCT+PN model [6]; [11]): 35%
- PA systolic pressure post dose (approximately 1 hour) vs pre-dose (rat MCT+PN model [6]; early stage of treatment, up to day 4): transient decrease
- solubility ([3]; aqueous with cosolvent or surfactant or cyclodextrin): 50 mg/mL (≈ 106 mM)
- solubility ([3]; organic solvent or mixture): 50 mg/mL (≈ 106 mM)
- solubility in water ([3]; pH 7): insoluble
- airway resistance compared to vehicle [7]: no significant difference
- minute ventilation compared to vehicle [7]: no significant difference
- respiratory rate compared to vehicle [7]: lower
- tidal volume compared to vehicle [7]: significantly improved
- IC50 ([5]; Homo sapiens, Fibroblast, FIG. 26, each concentration in duplicate, read-out: IC50, PDGF BB stimulated pAKT in human lung fibroblasts): 0.05 µM
- IC50 for inhibiting PDGFBB stimulated AKT phosphorylation relative to imatinib [5]: lower IC50 concentration compared to imatinib
- phosphorylation of PDGF receptor beta [8]: decreases phosphorylation
- decrease of PDGF BB stimulated ppERK1 and ppERK2 relative to imatinib ([9]; 1 uM and 10 uM): more effective
- decrease of PDGFBB stimulated ppERK1 formation ([9]; 1 uM, PDGF BB 10 ng/ml): effective
- RV end systolic pressure compared to vehicle ([10]; SU5416, 2 weeks hypoxia, 12 days normoxia, PK10571/trehalose/leucine dry powder twice a day): significant reduction
- PA systolic pressure after dosing compared to before dosing ([10]; on some days, telemetry): significant decrease
- 3D microCT of pulmonary arterial vasculature ([10]; preliminary, compared to vehicle treated animal): more third and fourth generation branches
